Laboratory results reported in paper PMC4887995, “Small molecule dual-inhibitors of TRPV4 and TRPA1 for attenuation of inflammation and pain” (Scientific Reports, 2016).
“Also recorded” adds a separate entry of the source.

Legend:
TRPV4 [1] = target: T1, TRPV4 (Sus scrofa, UniProt B3VP30); test: Ca++ imaging in primary articular chondrocytes, GSK101 stimulation; assay type: cell-based, pig; conditions: GSK101 5 nM
T1 construct: primary cells, which express functional and biologically-relevant TRPV4 without directed over-expression of the channel; endogenous in cells; host or cells: primary porcine articular chondrocytes (femoral condyles)
Method: (§1) Figure 4 Compound 16-8 inhibits TRPV4 in I˚ cells more potently than GSK205. […] Inset: Chondrocytes responding to activation with GSK101, fura-2 Ca^++ imaging; right-hand image taken at 5 sec after GSK101 application. […] (B) I˚ astrocytes (rat); dose-response comparison between 16-8 and GSK205 in response to 5 nM GSK101. Inset: Astrocytes responding to activation with GSK101; right-hand image taken at 5 sec after GSK101 application (mean ± SEM, n = 5 independent expts, n ≥ 200 cells/expt; *p < 0.05, t-test).
Primary porcine chondrocytes derived from femoral condyles of skeletally mature pigs were cultured and subjected to Ca^++ imaging as described previously.

TRPV4 [2] = target: TRPV4 (Rattus norvegicus, UniProt Q9ERZ8); test: Ca++ imaging in primary astrocytes, GSK101 stimulation; assay type: cell-based; conditions: GSK101 5 nM
Method: as §1
Astrocyte cultures were conducted following established protocols. Astrocytes were prepared from Sprague Dawley rat embryos (E18). Briefly, the isolated cortices were minced, and then incubated with trypsin and DNase. Dissociated cells were suspended in Dulbeccco’s Modified Eagle’s Medium (DMEM) supplemented with 10% fetal calf serum and penicillin/streptomycin (100 U/ml and 100 μg/ml, respectively). Thereafter, cell suspensions were plated in 75 cm^2 tissue culture flasks (10 × 10^6 cells/flask) which were pre-coated with poly-L-lysine (10 μg/ml). The cells were maintained in a 10%CO2 incubator at 37 °C.

[3] = test system: formalin-evoked trigeminal irritant pain; test: Trigeminal formalin irritant pain model, WT mice; assay type: in vivo, mouse; conditions: 10 mg/kg i.p.; for pain behavior, delayed (late neural) phase: 15 min before 4% formalin, 15–45 min
Method: Figure 7 16-8 and 16-19 effectively attenuate formalin-evoked trigeminal irritant pain. (A) Time-course of nocifensive behavior in WT mice following whisker-pad injection of 4% formalin. The mice were pre-injected (i.p., 10 mg/kg; 15 min before formalin) with GSK205, 16-8 or 16-19. Note effective reduction of nocifensive behavior in the late “neural” phase by compounds 16-8, 16-19, not by GSK205. (B) Cumulative response binned into 3 phases: acute phase (0–5 min), interphase (5–15 min), and late “neural” phase (15–45 min). […] (C) As in (A), but also including Trpv4^−/− mice. Compounds were applied i.p. 15 min before formalin challenge, at 10 mg/kg except established TRPA1 blocker, A967079 (25 mg/kg). Previously-established attenuated nocifensive behavior in early and late phase in Trpv4^−/− mice was recapped, which was reduced further by TRPA1 blocker, A967079. (D) As in (B), plus inclusion of Trpv4^−/− mice. Robust effects of TRPA1-blocker, A967079, were mimicked equi-potently by 16-8 and 16-19 for early phase, and by 16-8 for late phase, partially by 16-19 for late phase. (A,C) show averaged behavioral metrics per time-point, bars in (B,D) represent mean ± SEM; for (D) ^*P < 0.05; ^#P < 0.005, one-way ANOVA; for all panels n = 5–8 mice/group. Implementation of this model was conducted as described previously. Video-taped nocifensive behavior was assessed by investigators blinded to genotype and treatment.

[4] = test system: caerulein-evoked acute pancreatitis; test: Caerulein-induced acute pancreatitis mouse model; assay type: in vivo; conditions: 10 mg/kg i.p., 30 min before caerulein
Method: C57BL/6J male mice 8–10 weeks of age were subjected to acute pancreatitis by intraperitoneal injections of supramaximal doses of caerulein (50 μg/kg) every hour for a total of 6 h, as previously described in[61]. Control animals received 25% DMSO-saline solution by intraperitoneal injection every hour for 6 h. Compound 16-8 was dissolved in this vehicle (10 mg/kg) and injected i.p. 30 min prior to the first injection of caerulein. Animals were sacrificed 1 h after the last injection. Blood was collected and pancreatic tissue was promptly isolated, weighed for determination of pancreas wet weight/body weight ratio. Samples of tissues were fixed overnight in 10% neutral-buffered formalin, paraffin embedded and H&E-stained, or pancreatic tissue was quickly frozen and assessed for myeloperoxidase (MPO) activity. Serum amylase, MPO and histologic evaluation were conducted as described previously. Assessment of nocifensive behavior[8]: Mice were housed in individual cages and video-recorded during the entire experiment. Two mice at a time were observed. Linear movement was measured as one event when mice passed through the median plane of the cage. Analysis began immediately after the first caerulein/vehicle injection and continued until the end of the experiment. Results were expressed as the sum of the movement events spanning the 6 h time-period following the first injection.

TRPV3 = target: T2, TRPV3 (Mus musculus, UniProt Q8K424); test: Ca++ imaging in N2a cells over-expressing TRPV3 (camphor); conditions: 5 μM
T2 sequence (Q8K424 1-791): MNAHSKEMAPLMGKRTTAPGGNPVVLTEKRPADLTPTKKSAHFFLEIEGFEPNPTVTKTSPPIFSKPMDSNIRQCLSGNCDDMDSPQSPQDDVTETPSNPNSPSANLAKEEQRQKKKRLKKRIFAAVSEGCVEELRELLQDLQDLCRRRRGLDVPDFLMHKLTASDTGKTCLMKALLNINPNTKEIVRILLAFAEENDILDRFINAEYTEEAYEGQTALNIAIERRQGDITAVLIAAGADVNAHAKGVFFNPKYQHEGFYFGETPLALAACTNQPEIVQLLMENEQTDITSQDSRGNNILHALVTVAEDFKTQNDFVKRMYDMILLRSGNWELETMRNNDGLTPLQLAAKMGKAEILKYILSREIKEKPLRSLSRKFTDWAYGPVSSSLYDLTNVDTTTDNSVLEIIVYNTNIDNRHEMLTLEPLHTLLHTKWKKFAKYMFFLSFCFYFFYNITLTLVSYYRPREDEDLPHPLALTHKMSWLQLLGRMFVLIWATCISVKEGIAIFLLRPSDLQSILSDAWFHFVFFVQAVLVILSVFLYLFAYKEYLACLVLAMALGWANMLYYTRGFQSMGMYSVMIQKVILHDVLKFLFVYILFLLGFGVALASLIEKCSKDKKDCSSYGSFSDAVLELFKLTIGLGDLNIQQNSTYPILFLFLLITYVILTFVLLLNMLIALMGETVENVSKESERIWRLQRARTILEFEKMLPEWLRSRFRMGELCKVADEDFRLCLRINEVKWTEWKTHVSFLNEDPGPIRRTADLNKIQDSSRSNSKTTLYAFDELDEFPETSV
Method: (A) Specificity vs TRPV1-3. […] Mean±SEM is shown, ≥100 cells per condition. […] Plot generated from averaged peak ∆Ca^++ concentration of ≥75 cells per data-point.
N2a cells were used for directed expression of TRP ion channels as described previously[13]. […] All other channels were native channels from mouse, eGFP was co-transfected. […] Ca^++ imaging was performed as described previously[13][14][34].

[5] = Stability of compound in plasma; assay type: in vitro ADME; conditions: 4 h incubation in plasma at 37 °C

T1 sequence (B3VP30 1-871): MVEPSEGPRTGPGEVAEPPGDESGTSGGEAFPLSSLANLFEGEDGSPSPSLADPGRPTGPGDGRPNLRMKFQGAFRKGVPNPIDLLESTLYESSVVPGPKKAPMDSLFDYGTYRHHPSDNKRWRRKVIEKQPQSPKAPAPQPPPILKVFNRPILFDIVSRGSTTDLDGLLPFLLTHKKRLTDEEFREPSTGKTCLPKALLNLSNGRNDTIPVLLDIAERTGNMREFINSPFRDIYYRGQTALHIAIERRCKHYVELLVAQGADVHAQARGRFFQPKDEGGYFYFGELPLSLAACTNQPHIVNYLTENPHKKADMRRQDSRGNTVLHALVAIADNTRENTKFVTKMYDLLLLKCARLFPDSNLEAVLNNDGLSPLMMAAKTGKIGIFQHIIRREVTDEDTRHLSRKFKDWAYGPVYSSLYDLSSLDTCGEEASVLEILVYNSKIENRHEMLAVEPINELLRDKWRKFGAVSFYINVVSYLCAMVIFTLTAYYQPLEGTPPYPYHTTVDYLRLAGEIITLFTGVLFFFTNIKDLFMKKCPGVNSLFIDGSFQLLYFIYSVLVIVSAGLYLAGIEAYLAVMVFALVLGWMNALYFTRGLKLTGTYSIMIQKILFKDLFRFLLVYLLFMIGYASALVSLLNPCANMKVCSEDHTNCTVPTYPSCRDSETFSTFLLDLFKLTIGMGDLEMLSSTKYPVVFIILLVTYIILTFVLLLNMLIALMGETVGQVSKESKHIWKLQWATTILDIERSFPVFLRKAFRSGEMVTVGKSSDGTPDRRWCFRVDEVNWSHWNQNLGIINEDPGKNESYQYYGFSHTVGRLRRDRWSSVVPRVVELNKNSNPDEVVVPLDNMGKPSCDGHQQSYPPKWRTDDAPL
Chain of TRPV4 (Rattus norvegicus, UniProt Q9ERZ8) (Q9ERZ8 whole entry): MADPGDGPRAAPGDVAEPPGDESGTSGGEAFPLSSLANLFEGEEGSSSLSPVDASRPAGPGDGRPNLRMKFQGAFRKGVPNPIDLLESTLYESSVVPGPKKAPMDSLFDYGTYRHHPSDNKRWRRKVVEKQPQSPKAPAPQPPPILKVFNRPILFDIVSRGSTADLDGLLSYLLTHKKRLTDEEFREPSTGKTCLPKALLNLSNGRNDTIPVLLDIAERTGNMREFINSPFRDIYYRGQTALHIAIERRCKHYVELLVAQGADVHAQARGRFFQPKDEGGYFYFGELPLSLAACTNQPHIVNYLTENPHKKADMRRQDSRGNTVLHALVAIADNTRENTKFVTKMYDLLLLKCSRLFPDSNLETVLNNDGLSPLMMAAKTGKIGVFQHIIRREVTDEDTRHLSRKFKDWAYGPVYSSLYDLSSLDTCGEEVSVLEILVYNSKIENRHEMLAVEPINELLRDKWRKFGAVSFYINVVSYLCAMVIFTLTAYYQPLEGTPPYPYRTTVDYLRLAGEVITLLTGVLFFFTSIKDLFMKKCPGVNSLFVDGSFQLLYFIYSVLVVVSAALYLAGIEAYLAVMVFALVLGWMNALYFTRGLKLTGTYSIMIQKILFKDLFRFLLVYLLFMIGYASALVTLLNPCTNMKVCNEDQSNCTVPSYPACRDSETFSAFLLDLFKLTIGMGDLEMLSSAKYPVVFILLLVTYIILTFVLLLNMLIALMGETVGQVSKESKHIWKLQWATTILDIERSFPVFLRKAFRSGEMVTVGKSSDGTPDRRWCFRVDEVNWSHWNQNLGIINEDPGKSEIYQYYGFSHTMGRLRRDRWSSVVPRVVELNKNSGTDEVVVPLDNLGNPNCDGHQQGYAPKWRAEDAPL

Structure (SMILES) | potency vs GSK205, dose-response of peak ∆Ca++ (TRPV4 [1]) | potency vs GSK205, dose-response of peak ∆Ca++ (TRPV4 [2]) | diminishing of pain behavior, delayed phase [3] [%] | pain behavior, delayed (late neural) phase [3] | histopathological score for pancreas inflammation [4] | myelo-peroxidase (MPO) [4] | pain behavior (nocifensive behavior, 6 h test period) [4] | pancreatic edema [4] | inhibition of TRPV3 (TRPV3) | stability in plasma [5]
CN(CCc1ccc(Nc2nc(-c3ccccc3)cs2)cc1)Cc1ccccc1 [16-8] | significantly more potent than GSK205 | significantly increased potency | > 50 | significant attenuation; also recorded: significant reduction | significantly reduced; also recorded: significant reduction | significantly reduced | virtually eliminated; also recorded: significantly reduced | virtually eliminated | did not inhibit | –
CCN(CCc1ccc(Nc2nc(-c3ccccc3)cs2)cc1)Cc1ccccc1 [16-19] | – | – | – | robust effect; also recorded: significant reduction | – | – | – | – | did not inhibit | stable; also recorded: no loss of detectable compound
